The source of these data is PubChem BioAssay (NCI).

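Tested at 5 concentrations; 48 h exposure; 96-well plates; endpoints linearly interpolated, else capped at highest concentration. The concentration for 50% growth inhibition is given as GI50. At the TGI there is no net growth.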

Test systems include A498 renal; CAKI-1 renal; HCT-15 colon; OVCAR-8 ovarian; LOX IMVI melanoma; TK-10 renal; U251 CNS; NCI/ADR-RES ovarian; BT-549 breast; OVCAR-3 ovarian.
What all share (assay): NCI-60 cell line screen, 48 h

For `Nc1cc(CO)cc(Nc2c3ccccc3nc3ccccc23)c1`, the TGI with A498 renal is 46.6 µM; in the test on CAKI-1 renal it was 31.7 µM; in the test with HCT-15 colon it was 34.4 µM; in the test on OVCAR-8 ovarian it was 29.5 µM; in the test with LOX IMVI melanoma, 31.5 µM; in the test on TK-10 renal, 30.1 µM. Besides, the TGI with U251 CNS was 28.3 µM; in the test on NCI/ADR-RES ovarian, 35.8 µM; with BT-549 breast, 27.7 µM; with OVCAR-3 ovarian it was 32.2 µM.
As to `CC1=NNC(=O)C1C1(C(=O)O)CC(c2c[nH]c3ccccc23)=NC(=S)N1` (stereo unspecified), the TGI is over 100 µM in the test with A498 renal; over 100 µM in the test with CAKI-1 renal; over 100 µM in the test with HCT-15 colon; over 100 µM in the test with OVCAR-8 ovarian; 39.6 µM in the test with LOX IMVI melanoma; over 100 µM with TK-10 renal. Also, the TGI in the test with U251 CNS was 69.8 µM; with NCI/ADR-RES ovarian, over 100 µM; in the test on BT-549 breast, over 100 µM; in the test with OVCAR-3 ovarian, 65.8 µM.
Take `C/C(Cc1ccc2c(c1)OCO2)=N\N=c1\sc2ccccc2n1C`: the TGI in the test on A498 renal, in the test on CAKI-1 renal, with HCT-15 colon, with OVCAR-8 ovarian, in the test with LOX IMVI melanoma and with TK-10 renal was over 100 µM in each case. Besides, the TGI with U251 CNS, in the test with NCI/ADR-RES ovarian, with BT-549 breast and in the test on OVCAR-3 ovarian was over 100 µM each time.
Take `O=C(Cn1c2ccc(Br)cc2c2nc3ccccc3nc21)NCc1ccccc1`: the TGI was over 100 µM with A498 renal; over 100 µM with CAKI-1 renal; over 100 µM in the test with HCT-15 colon; over 100 µM in the test on OVCAR-8 ovarian; over 100 µM with LOX IMVI melanoma; 49.5 µM with TK-10 renal. Besides, the TGI with U251 CNS is 69.7 µM; in the test on NCI/ADR-RES ovarian, over 100 µM; with BT-549 breast it was over 100 µM; in the test with OVCAR-3 ovarian, over 100 µM.
For the compound `N=c1oc2cc(O)ccc2cc1C(=O)Nc1ccccn1`, the TGI was 98.2 µM with A498 renal; over 100 µM in the test with CAKI-1 renal; over 100 µM in the test with HCT-15 colon; over 100 µM with OVCAR-8 ovarian; over 100 µM in the test with LOX IMVI melanoma; over 100 µM in the test on TK-10 renal. Further, the TGI in the test on U251 CNS, in the test on NCI/ADR-RES ovarian, in the test with BT-549 breast and in the test with OVCAR-3 ovarian was over 100 µM throughout.
For `Cc1cn(S(=O)(=O)c2ccccc2)c2c(OCc3ccccc3)cc([N+](=O)[O-])cc12`, the TGI in the test on A498 renal, in the test on CAKI-1 renal, in the test on HCT-15 colon, with OVCAR-8 ovarian, in the test on LOX IMVI melanoma and in the test on TK-10 renal was over 100 µM throughout. In addition, the TGI in the test with U251 CNS, with NCI/ADR-RES ovarian, in the test with BT-549 breast and in the test on OVCAR-3 ovarian was over 100 µM throughout.
As for `O=C(O)c1ccc2c(O)c(O)ccc2c1`, the TGI was 97.9 µM in the test on A498 renal; 48.2 µM with CAKI-1 renal; 55 µM with HCT-15 colon; 47.9 µM in the test with OVCAR-8 ovarian; 57 µM in the test with LOX IMVI melanoma; 18.6 µM in the test with TK-10 renal. Also, the TGI with U251 CNS was found to be 45.6 µM; in the test with NCI/ADR-RES ovarian it was 55.3 µM; with BT-549 breast, 40.8 µM; with OVCAR-3 ovarian, 34.5 µM.
For the compound `CCC1(O)C(=O)OCc2c1cc1n(c2=O)Cc2cc3cc4c(cc3nc2-1)OCO4` (stereo unspecified), the TGI in the test on A498 renal amounted to 0.0816 µM; in the test with CAKI-1 renal, 0.046 µM; in the test on HCT-15 colon it was 19 µM; in the test with OVCAR-8 ovarian, 1.29 µM; in the test with LOX IMVI melanoma, 0.0688 µM; in the test on TK-10 renal, 37.3 µM. For the same compound, the TGI was 0.183 µM with U251 CNS, 0.0277 µM in the test on NCI/ADR-RES ovarian, over 100 µM in the test on BT-549 breast and 0.589 µM in the test with OVCAR-3 ovarian. Besides, the GI50 with BT-549 breast is under 0.01 µM.
For the compound `COc1ccc(-c2c(C#N)c(N)[nH]c(=S)c2C#N)cc1`, the TGI with A498 renal, in the test with CAKI-1 renal, in the test with HCT-15 colon, with OVCAR-8 ovarian, with LOX IMVI melanoma and in the test on TK-10 renal was over 100 µM throughout. Also, the TGI was over 100 µM in the test on U251 CNS, over 100 µM in the test on NCI/ADR-RES ovarian, 85.4 µM in the test on BT-549 breast and over 100 µM in the test on OVCAR-3 ovarian.
In the case of `COc1cc2ncnc(NS(=O)(=O)c3cc4ccccc4s3)c2cc1OC`, the TGI in the test on A498 renal, in the test on CAKI-1 renal, with HCT-15 colon, with OVCAR-8 ovarian, with LOX IMVI melanoma and with TK-10 renal was over 100 µM throughout. Moreover, the TGI in the test on U251 CNS, in the test with NCI/ADR-RES ovarian, in the test with BT-549 breast and with OVCAR-3 ovarian was over 100 µM in each case.
Take `Nc1cc(C2CCCc3c2[nH]c2ccccc32)ccc1O` (stereo unspecified): the TGI with A498 renal is over 100 µM; in the test with CAKI-1 renal, 84.5 µM; with HCT-15 colon, over 100 µM; in the test on OVCAR-8 ovarian, over 100 µM; with LOX IMVI melanoma, 71.2 µM; in the test on TK-10 renal, over 100 µM. Moreover, the TGI with U251 CNS, in the test on NCI/ADR-RES ovarian, in the test on BT-549 breast and in the test with OVCAR-3 ovarian was over 100 µM throughout.
For the compound `CN1C/C(=C\c2cccs2)C2=NN(c3ccccc3)C(c3cccs3)C2C1` (stereo unspecified), the TGI is over 90.2 µM in the test with A498 renal; over 100 µM in the test on CAKI-1 renal; over 100 µM in the test with HCT-15 colon; over 100 µM in the test with OVCAR-8 ovarian; over 100 µM with LOX IMVI melanoma; over 100 µM in the test with TK-10 renal. Further, the TGI in the test with U251 CNS is over 100 µM; in the test with NCI/ADR-RES ovarian, over 100 µM; with BT-549 breast, over 100 µM; in the test on OVCAR-3 ovarian it was over 21.8 µM.
Regarding `Cc1ccc(C(=O)Nc2ccc(S(=O)(=O)O)c3cc(S(=O)(=O)O)cc(S(=O)(=O)O)c23)cc1NC(=O)c1cccc(NC(=O)Nc2cccc(C(=O)Nc3cc(C(=O)Nc4ccc(S(=O)(=O)O)c5cc(S(=O)(=O)O)cc(S(=O)(=O)O)c45)ccc3C)c2)c1`, the TGI was over 100 µM with A498 renal; over 100 µM with CAKI-1 renal; over 100 µM in the test with HCT-15 colon; over 100 µM in the test on OVCAR-8 ovarian; over 100 µM with LOX IMVI melanoma; over 89.7 µM with TK-10 renal. Further, the TGI in the test with U251 CNS, in the test on NCI/ADR-RES ovarian, in the test with BT-549 breast and in the test on OVCAR-3 ovarian was over 100 µM in each case.
On to `CC(=O)C1=C(C)N(c2ccccc2)C2(O)C3=C(C(=O)c4ccccc4C3=O)C(O)=CC12Cl` (stereo unspecified), for which the TGI in the test on A498 renal was 30.5 µM; in the test with CAKI-1 renal, 27.2 µM; with HCT-15 colon, over 100 µM; with OVCAR-8 ovarian it was over 100 µM; in the test with LOX IMVI melanoma, over 100 µM; with TK-10 renal it was 33.1 µM. Also, the TGI in the test with U251 CNS is 50.1 µM; with NCI/ADR-RES ovarian, over 100 µM; in the test on BT-549 breast it was 30.3 µM; in the test on OVCAR-3 ovarian it was over 100 µM.
Regarding `CC(C)CC1c2[nH]c3ccccc3c2C[C@H]2C(=O)NC(Cc3c[nH]c4ccccc34)C(=O)N12` (stereo partly specified), the TGI was found to be 33.4 µM in the test on A498 renal; 66.1 µM in the test on CAKI-1 renal; 47.2 µM in the test on HCT-15 colon; 39 µM in the test with OVCAR-8 ovarian; 31.1 µM with LOX IMVI melanoma; 24.5 µM in the test on TK-10 renal. In addition, the TGI turned out to be 28.4 µM in the test with U251 CNS, 56.4 µM with NCI/ADR-RES ovarian, 36.2 µM in the test on BT-549 breast and 30.5 µM in the test with OVCAR-3 ovarian.
